Data on nine compounds can be found in US20070275985A1, “Triazolopyrimidines” (Bayer Cropscience Aktiengesellschaft, priority 2003, published 2007).

Series [1] can be described thus: logP determination by HPLC (EEC-Directive 79/831 Annex V. A8, gradient method). It is filed as physicochemical. The following applies: for chromatographic logP: value printed in preparation example text, read-out: HPLC: log P; for logP: gradient method, acetonitrile/0.1% aqueous phosphoric acid.
The test system of series [2] is Erysiphe graminis f sp. tritici. The series can be described thus: Erysiphe test (wheat)/protective. The following applies: protective, 500 g/ha, assessment 7 days after inoculation. Type of series: in vivo. The source says:
[table] One part by weight of active substance is mixed with the specified quantities of solvent and emulsifier and the concentrate diluted with water to the desired concentration to prepare a suitable active substance preparation. To test the protective efficiency, young plants are sprayed with the active substance preparation in the specified amount. After drying the spray coating, the plants are dusted with spores of Erysiphe graminis f sp. tritici. The plants are then placed in a glasshouse at a temperature of about 20° C. and a relative humidity of about 80% to promote the development of mildew pustules. The assessment is made 7 days after the inoculation. In this situation 0% means an efficiency corresponding to that of the control whereas an efficiency of 100% means that no attack is observed.

Each structure is given as a SMILES string. Like-named read-outs stand apart in the source and are kept apart here.

A word on the logP: it is the decadic logarithm of the partition coefficient of the neutral form, usually between octanol and water.

On to `C[C@H](Nc1c(-c2ncccc2C(F)(F)F)c(Cl)nc2ncnn12)C(F)(F)F` [Example 1, N-{5-chloro-6-[3-(trifluoromethyl)-2-pyridinyl][1,2,4]triazolo[1,5-a]pyrimidin-7-yl}-N-[(1 S)-2,2,2-trifluor-1-methylethyl]amine], for which the chromatographic logP in series [1] was found to be 2.22.
Regarding `C[C@H](Nc1c(-c2ncncc2Cl)c(Cl)nc2ncnn12)C(F)(F)F` [Example 2, N-[5-chloro-6-(5-chloro-4-pyrimidinyl)[1,2,4]triazolo[1,5-a]pyrimidin-7-yl]-N-[(1S)-2,2,2-trifluoro-1-methylethyl]amine], the efficiency result in series [2] is given as “higher than 90%”. Also, the chromatographic logP in series [1] (HPLC (gradient method, EEC-Directive 79/831 Annex V. A8)) stood at 1.98.
On to `CC(C)CNc1c(-c2ncc(C(F)(F)F)cc2F)c(Cl)nc2ncnn12` [Example 3], for which, in series [1], the logP came out at 2.85.
In turn, `C=C(C)CN(CC)c1c(-c2ncc(C(F)(F)F)cc2F)c(Cl)nc2ncnn12` [Example 4] had a logP in series [1] of 3.51.
Still for that read-out and setting: the figure for `CC(Nc1c(-c2ncc(C(F)(F)F)cc2F)c(Cl)nc2ncnn12)C(F)(F)F` (stereo not shown) [Example 6] is 2.91; for `CC(C)C(C)Nc1c(-c2ncc(C(F)(F)F)cc2F)c(Cl)nc2ncnn12` (stereo not shown) [Example 7] it is 3.13.
The compound `C[C@@H](Nc1c(-c2ncncc2Cl)c(Cl)nc2ncnn12)C(F)(F)F` [Example 8] yielded a logP in series [1] of 1.98.
In series [1], `CC(C)C(C)Nc1c(-c2ncccc2C(F)(F)F)c(Cl)nc2ncnn12` (stereo not shown) [Example 11] gave a log partition coefficient (logP) of 2.53.
Same read-out and setting: the figure for `CC(C)C(C)Nc1c(-c2ncncc2Cl)c(Cl)nc2ncnn12` (stereo not shown) [Example 13] is 2.16.
